Experimental data: patent US20250205344A1, “2,4-DIOXOTETRAHYDROPYRIMIDINYL DERATIVES AS DEGRONS IN PROTACS” (GLAXOSMITHKLINE INTELLECTUAL PROPERTY DEVELOPMENT LIMITED, priority 2022, published 2025)

Target: T1, IRAK4 (Interleukin 1 Receptor Associated Kinase 4) (Homo sapiens, UniProt Q9NWZ3)
T1 construct: the IRAK4 gene was modified, using CRISPR/Cas9 editing, so the expressed IRAK4 protein included an 11 amino acid HiBiT tag; endogenous in cells; host or cells: clonal HeLa line, IRAK4 gene edited by CRISPR/Cas9 (heterozygous)
T1 sequence (Q9NWZ3 1-460): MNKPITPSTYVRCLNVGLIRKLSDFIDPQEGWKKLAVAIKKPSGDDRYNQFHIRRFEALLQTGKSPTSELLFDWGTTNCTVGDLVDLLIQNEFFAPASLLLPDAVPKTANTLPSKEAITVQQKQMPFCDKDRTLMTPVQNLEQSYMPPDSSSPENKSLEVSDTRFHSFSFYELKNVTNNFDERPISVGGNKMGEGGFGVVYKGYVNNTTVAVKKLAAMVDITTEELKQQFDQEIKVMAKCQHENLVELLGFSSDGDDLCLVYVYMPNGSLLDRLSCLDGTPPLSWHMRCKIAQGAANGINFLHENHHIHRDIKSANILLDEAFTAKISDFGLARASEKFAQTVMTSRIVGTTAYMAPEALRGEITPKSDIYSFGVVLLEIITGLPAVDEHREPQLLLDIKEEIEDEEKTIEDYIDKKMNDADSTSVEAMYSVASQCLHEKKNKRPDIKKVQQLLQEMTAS
Assay: IRAK4 Degradation Assay (Nano-Glo HiBiT)
Assay type: cell-based
Conditions: HiBiT-tagged IRAK4 in HeLa cells, 18 h
Source text: Degradation of IRAK4 (Interleukin 1 Receptor Associated Kinase 4) protein in Hela cells treated with PROTACs was quantified using the Nano-Glo® HiBiT Lytic Detection System (Promega) in 384 well assay plate format. A clonal HeLa cell line was first established in which the IRAK4 gene was modified, using CRISPR/Cas9 editing, so the expressed IRAK4 protein included an 11 amino acid HiBiT tag at it's amino-terminus. The cell lines were heterozygotic for the HiBiT modification. Cells were cryopreserved in aliquots in 90% foetal bovine serum (FBS), 10% DMSO and stored at −150° C. 10 mM DMSO stock solutions of PROTACs were prepared and diluted across an 11 concentration, 3 fold increment range, and 25 nL dispensed into a white opaque bottomed 384 well assay plate (Thermofisher) using an acoustic ECHO dispenser (Labcyte). […] The intensity of luminescence was measured using a PHERAstar microplate reader (BMG Labtech) and the % IRAK4 protein remaining in each well calculated by normalising the raw luminescence value to the above control wells. Parameters corresponding to the potency and efficacy estimates of the PROTACs were obtained from these normalised luminescence values using software (IDBS ActivityBase). […]

mean asymptote max: 96%
mean relative pDC50: 8.1
SMILES: CC(C)n1ccc2c(N3CCC(=O)NC3=O)cc(C(=O)NCCOCCOCCN(C)C(=O)c3ccc(-n4cc(NC(=O)c5coc(-c6ccnc(NCC7CC7)c6)n5)c(C(F)F)n4)cc3)cc21 [Example I1, 2-(2-((Cyclopropylmethyl)amino)pyridin-4-yl)-N-(3-(difluoromethyl)-1-(4-((2-(2-(2-(4-(2,4-dioxotetrahydropyrimidin-1(2H)-yl)-1-isopropyl-1H-indole-6-carboxamido)ethoxy)ethoxy)ethyl)(methyl)carbamoyl)phenyl)-1H-pyrazol-4-yl)oxazole-4-carboxamide]
